Reference: patent US11986531B2, “Compounds and methods for the targeted degradation of rapidly accelerated fibrosarcoma polypeptides” (ARVINAS OPERATIONS, INC., priority 2016, dated 2024)

System: BRAF mutants (Class 1, Class 2 and Class 3)
Assay: targeted degradation of BRAF mutants (summary of FIGS. 4-10)
Format: cell-based
Conditions: BRAF mutants sensitive (Class 1) and insensitive (Class 2 and Class 3) to vemurafenib

`CCCS(=O)(=O)Nc1ccc(F)c(C(=O)c2c[nH]c3ncc(-c4ccc(N5CCN(CC(=O)N[C@H](C(=O)N6C[C@H](O)C[C@H]6C(=O)NCc6ccc(-c7scnc7C)cc6)C(C)(C)C)CC5)cc4)cc23)c1F` [compound 512, (2S,4R)-1-((S)-2-(2-(4-(4-(3-(2,6-difluoro-3-(propylsulfonamido)benzoyl)-1H-pyrrolo[2,3-b]pyridin-5-yl)phenyl)piperazin-1-yl)acetamido)-3,3-dimethylbutanoyl)-4-hydroxy-N-(4-(4-methylthiazol-5-yl)benzyl)pyrrolidine-2-carboxamide] was tested. Which “targeted degradation of BRAF mutants” value did it give?
The value was “induces targeted degradation of BRAF mutants sensitive (Class 1) and insensitive (Class 2 and Class 3) to vemurafenib”.
